We go through 21 compounds from patent publication US20240279218A1 (Hoffmann-La Roche Inc., priority 2016, published 2024).

In assay [1] the target is T1, h-GABA-A α5β3γ2 (Homo sapiens (Human), UniProt P18507+P31644). In words: Two-electrode voltage clamp electrophysiology in Xenopus oocytes expressing GABAA receptors, modulation of GABA EC20 current. The assay is classed as cell-based. The conditions noted are these: for Efficacy (GABA) %: % modulation of GABA EC20 = 100*(Fold increase−1); for Efficacy (GABA) % / Fold increase h-GABA-A α5β3γ2 oocyte: Xenopus oocytes; for Fold increase h-GABA-A α5β3γ2 oocyte: GABA EC20, test compound at approx. 30 fold its Ki. Here is the method: Xenopus laevis oocytes at maturation stages V-VI were used for the expression of cloned mRNA encoding GABAA receptor subunits. Oocytes ready for RNA micro-injection were bought from Ecocyte, Castrop-Rauxel, Germany and stored in modified Barth's medium (composition in mM: NaCl 88, KCl 1, NaHCO32.4, HEPES 10, MgSO4 0.82, CaNO3 0.33, CaCl2) 0.33, pH=7.5) at 20° C. until the experiment.
Oocytes were plated in 96-well plates to be used in an automated instrument (Robo-ocyte, MultiChannelSystems, Reutlingen, Germany) for microinjection and electrophysiological recordings. Approximately 50 nl of an aqueous solution containing the RNA transcripts for the subunits of the desired GABAA receptor was injected into each oocyte. RNA concentrations ranged between 0.3 and 16 ng/μl/subunit and were adjusted in pilot experiments to obtain GABA responses of a suitable size and a maximal effect of the reference modulator, Beta-CCM (β-CCM), a betacarboline negative allosteric modulator (NAM) at the GABAA receptor benzodiazepine (BZD) binding site or Midazolam, a benzodiazepine positive allosteric modulator (PAM) at the GABAA receptor benzodiazepine (BZD) binding site. The concentration of the γ2 subunit encoding RNA usually was 5-to 10-fold higher than the RNAs encoding the other subunits. Oocytes were kept in modified Barth's medium (composition in mM: NaCl 88, KCl 1, NaHCO3 4, HEPES 10, MgSO4 0.82, CaNO3 0.33, CaCl2 0.33, pH=7.5) at 20° C. until the experiment.
Electrophysiological experiments were performed on days 3 to 5 after the micro-injection of mRNA. During the experiment the oocytes were constantly superfused by a solution containing (in mM) NaCl 90, KCl 1, HEPES 5, MgCl2 1, CaCl2 1 (pH 7.4). Oocytes were impaled by two glass microelectrodes (resistance: 0.4 MΩ) which were filled with a solution containing KCl 1M+K-acetate 1.5 M and voltage-clamped to −80 mV. The recordings were performed at room temperature using the Roboocyte two-electrode voltage clamp system (Multichannelsystem). After an initial equilibration period of 1.5 min GABA was added for 1.5 min at a concentration evoking approximately 20% of a maximal current response (EC20). After another rest interval of 2.5 min GABA was again added evoking a response of similar amplitude and shape. […] Current traces were recorded at a digitization rate of 10 Hz during and shortly before and after the GABA application.
Each compound and concentration was tested on at least 3 oocytes.
For the analysis, the digitized current traces of the first and second GABA response were superimposed and, if necessary, rescaled to equal maximal amplitudes. The ratio between the two responses during the time interval of test compound application was calculated point by point. The extremum of the resulting “ratio trace” was taken as the efficacy (“Fold increase”) of the compound expressed as “% modulation of GABA EC20” (100*(Fold increase−1)).
For orientation: Two-electrode voltage clamp holds a large cell at a set potential and records current.

Assay [2] deals with T1, h-GABA-A α5β3γ2. In words: [3H]flumazenil competition binding assay, membranes of HEK293 cells expressing human GABAA receptors. The conditions noted are these: displacement of [3H]flumazenil 0.5 nM, HEK293 cells expressing human receptors, mean of two determinations; read-out: Ki h-GABA-A α5β3γ2. Here is the method: The affinity of compounds at GABAA receptor subtypes was measured by competition for [3H]flumazenil (85 Ci/mmol; Roche) binding to HEK293 cells expressing rat (stably transfected) or human (transiently transfected) receptors of composition α1β3γ2, α2β3γ2, α3β3γ2 and α5β3γ2.
Cell pellets were suspended in Krebs-tris buffer (4.8 mM KCl, 1.2 mM CaCl2, 1.2 mM MgCl2, 120 mM NaCl, 15 mM Tris; pH 7.5; binding assay buffer), homogenized by polytron for ca. 20 sec on ice and centrifuged for 60 min at 4° C. (50000 g; Sorvall, rotor: SM24=20000 rpm). The cell pellets were resuspended in Krebs-tris buffer and homogenized by polytron for ca. 15 sec on ice. Protein was measured (Bradford method, Bio-Rad) and aliquots of 1 mL were prepared and stored at −80° C.
Assays were incubated to equilibrium for 1 hour at 4° C. and harvested onto GF/C uni-filters (Packard) by filtration using a Packard harvester and washing with ice-cold wash buffer (50 mM Tris; pH 7.5). After drying, filter-retained radioactivity was detected by liquid scintillation counting. Ki values were calculated using Excel-Fit (Microsoft) and are the means of two determinations.
A general note: Displacement assays read how much labelled ligand stays bound in the presence of the test substance.

Where [3] appears, read: positive control, maximally effective concentration, 3-6 oocytes per plate.

Turning to `Cc1ccc(-c2noc(C)c2COc2ccc(C(=O)NC(C)C(F)(F)F)nn2)cn1` (racemic) [Example 34, (RS)-6-((5-methyl-3-(6-methylpyridin-3-yl)isoxazol-4-yl)methoxy)-N-(1,1,1-trifluoropropan-2-yl)pyridazine-3-carboxamide], at h-GABA-A α5β3γ2 [1], the “Efficacy (GABA) %” value was determined as 84% and the “Fold increase h-GABA-A α5β3γ2 oocyte” value was determined as 1.84.
The corresponding values for `Cc1ccc(-c2noc(C)c2COc2ccc(C(=O)NC3CCS(=O)(=O)C3)nn2)cn1` (racemic) [Example 36, (RS)—N-(1,1-dioxothiolan-3-yl)-6-((5-methyl-3-(6-methylpyridin-3-yl)-1,2-oxazol-4-yl)methoxy)pyridazine-3-carboxamide] are 65% and 1.65.
As for `Cc1ccc(-c2noc(C)c2COc2ccc(C(=O)NC3CCOC3)nn2)cn1` (racemic) [Example 45, (RS)-6-((5-methyl-3-(6-methylpyridin-3-yl)isoxazol-4-yl)methoxy)-N-(tetrahydrofuran-3-yl)pyridazine-3-carboxamide], on h-GABA-A α5β3γ2 [1], the “Efficacy (GABA) %” value is listed as 84% and the “Fold increase h-GABA-A α5β3γ2 oocyte” value is reported as 1.84.
In the same order, the values of `Cc1ccc(-c2noc(C)c2COc2ccc(C(=O)NC3CCOC(C)(C)C3)nn2)cn1` (racemic) [Example 58, (RS)—N-(2,2-dimethyltetrahydropyran-4-yl)-6-((5-methyl-3-(6-methylpyridin-3-yl)isoxazol-4-yl)methoxy)pyridazine-3-carboxamide] are 71% and 1.71.
Take `Cc1ccc(-c2noc(C)c2COc2ccc(C(=O)NC3(C)CCOC3)nn2)cn1` (racemic) [Example 75]: on h-GABA-A α5β3γ2 [1], the “Efficacy (GABA) %” value turned out to be 89% and the “Fold increase h-GABA-A α5β3γ2 oocyte” value was determined as 1.89.
The corresponding values for `Cc1ccc(-c2noc(C)c2COc2ccc(C(=O)N[C@@H]3CC[C@@H](O)C3)nn2)cn1` (racemic) [Example 152, N-((1RS,3RS)-3-hydroxycyclopentyl)-6-((5-methyl-3-(6-methylpyridin-3-yl)isoxazol-4-yl)methoxy)pyridazine-3-carboxamide] are 85% and 1.85.
In the same order, the values of `CO[C@@H]1CC[C@@H](NC(=O)c2ccc(OCc3c(-c4ccc(C)nc4)noc3C)nn2)C1` (racemic) [Example 166, trans-N-((1RS,3RS)-3-methoxycyclopentyl)-6-((5-methyl-3-(6-methylpyridin-3-yl)isoxazol-4-yl)methoxy)pyridazine-3-carboxamide] are 70% and 1.7.
In the same order, the values of `Cc1ccc(-c2noc(C)c2COc2ccc(C(=O)NC3CCCOCC3)nn2)cn1` (racemic) [Example 187, (RS)-6-((5-methyl-3-(6-methylpyridin-3-yl)isoxazol-4-yl)methoxy)-N-(oxepan-4-yl)pyridazine-3-carboxamide] are 88% and 1.88.
As a reminder, the Ki is a dissociation constant, usually derived from enzyme kinetics or from competition with a known ligand. Consider `Cc1ccc(-c2noc(C)c2COc2ccc(C(=O)N[C@@]3(C)CCOC3)nn2)cn1` (single isomer, unassigned) [Example 81], for which, on h-GABA-A α5β3γ2 [2], the Ki worked out at 10.4 nM. Moreover, at h-GABA-A α5β3γ2 [1], the “Efficacy (GABA) %” value is listed as 80% and the “Fold increase h-GABA-A α5β3γ2 oocyte” value came to 1.8.
In the same order, the values of `Cc1ccc(-c2noc(C)c2COc2ccc(C(=O)N[C@]3(C)CCOC3)nn2)cn1` (single isomer, unassigned) [Example 82] are 12.4 nM, 101% and 2.01.
Regarding `Cc1ccc(-c2noc(C)c2COc2ccc(C(=O)N[C@@H]3CC[C@@](O)(C(F)(F)F)C3)nn2)cn1` (single isomer, unassigned) [Example 149], the Ki on h-GABA-A α5β3γ2 [2] was 5 nM. On h-GABA-A α5β3γ2 [1], the “Efficacy (GABA) %” value amounted to 37% and the “Fold increase h-GABA-A α5β3γ2 oocyte” value is reported as 1.37.
For the compound `Cc1ccc(-c2noc(C)c2COc2ccc(C(=O)N[C@H]3CC[C@](O)(C(F)(F)F)C3)nn2)cn1` (single isomer, unassigned) [Example 150], at h-GABA-A α5β3γ2 [2], the Ki worked out at 16.7 nM. Further, at h-GABA-A α5β3γ2 [1], the “Efficacy (GABA) %” value is listed as 69% and the “Fold increase h-GABA-A α5β3γ2 oocyte” value is recorded as 1.69.
For `Cc1ccc(-c2noc(C)c2COc2ccc(C(=O)N[C@H]3C[C@H]4CC[C@H]3O4)nn2)cn1` (single isomer, unassigned) [Example 188], at h-GABA-A α5β3γ2 [2], the Ki was found to be 20.7 nM. Further, on h-GABA-A α5β3γ2 [1], the “Efficacy (GABA) %” value is given as 71% and the “Fold increase h-GABA-A α5β3γ2 oocyte” value stood at 1.71.
For the compound `Cc1ccc(-c2noc(C)c2COc2ccc(C(=O)N[C@@H]3C[C@@H]4CC[C@@H]3O4)nn2)cn1` (single isomer, unassigned) [Example 189], at h-GABA-A α5β3γ2 [2], the Ki is 18.8 nM. Moreover, on h-GABA-A α5β3γ2 [1], the “Efficacy (GABA) %” value is on record as 86% and the “Fold increase h-GABA-A α5β3γ2 oocyte” value is listed as 1.86.
Regarding `Cc1ccc(-c2nocc2COc2ccc(C(=O)NC3CCOCC3)cn2)cn1` [Example 44, 6-((3-(6-methyl-3-pyridyl)isoxazol-4-yl)methoxy)-N-tetrahydropyran-4-yl-pyridine-3-carboxamide], the “Efficacy (GABA) %” value on h-GABA-A α5β3γ2 [1] was 54%.
As to `Cc1ccc(-c2noc(C)c2COc2ccc(C(=O)NC(C)(C)CCS(C)(=O)=O)nn2)cn1` [Example 80, 6-((5-methyl-3-(6-methylpyridin-3-yl)isoxazol-4-yl)methoxy)-N-(2-methyl-4-(methylsulfonyl)butan-2-yl)pyridazine-3-carboxamide], on h-GABA-A α5β3γ2 [1], the “Efficacy (GABA) %” value amounted to 108% and the “Fold increase h-GABA-A α5β3γ2 oocyte” value is 2.08.
Turning to `Cc1ccc(-c2noc(C)c2COc2ccc(C(=O)N3C[C@@H]4C[C@H]3CO4)nn2)cn1` [Example 151, (1S,4S)-2-oxa-5-azabicyclo[2.2.1]heptan-5-yl(6-((5-methyl-3-(6-methylpyridin-3-yl)isoxazol-4-yl)methoxy)pyridazin-3-yl)methanone], the “Efficacy (GABA) %” value on h-GABA-A α5β3γ2 [1] came out at 68%.
Still for that read-out and setting: to `Cc1onc(-c2ccc(Cl)nc2)c1COc1ccc(C(=O)N[C@H]2CCOC2)nn1` [Example 160, (S)-6-((3-(6-chloropyridin-3-yl)-5-methylisoxazol-4-yl)methoxy)-N-(tetrahydrofuran-3-yl)pyridazine-3-carboxamide] belongs 42%.
In the case of `O=C(N[C@H]1CCOC1)c1ccc(OCc2c(-c3ccc(Cl)nc3)noc2C2CC2)nn1` [Example 179, (S)-6-((3-(6-chloropyridin-3-yl)-5-cyclopropylisoxazol-4-yl)methoxy)-N-(tetrahydrofuran-3-yl)pyridazine-3-carboxamide], the “Efficacy (GABA) %” value at h-GABA-A α5β3γ2 [1] was 82%.
Turning to `Cc1ncc2n1-c1ccc(Cl)cc1C(c1ccccc1F)=NC2` [Midazolam, reference compound], on h-GABA-A α5β3γ2 [1] (setting [3]), the Fold increase was around 2.5 and the “potentiation of the GABA-induced current” value was around 150%.
On to `COC(=O)c1cc2c(cn1)[nH]c1ccccc12` [β-CCM, Beta-CCM, reference compound], for which, at h-GABA-A α5β3γ2 [1] (setting [3]), the Fold increase was around 0.5 and the “inhibition of the GABA-evoked current” value is given as around 50%.
